Test results as given in patent publication US5965598A, “Zinc-phthalocyanines and corresponding conjugates, their preparation and use in photodynamic therapy and as diagnostic agents” (priority 1997, dated 1999).

Experiments:
[1] = test system: Branhamella catarrhalis; assay: Photoinactivation of microorganisms: Branhamella catarrhalis; type: cell-based; details: footnote
Method: (§1) The experimental protocol was the following:
(§2) Incubation in dark at 37° C. (5 min to 1 hour).

[2] = test system: Staphylococcus aureus (ATCC 6538P); assay: Photoinactivation of microorganisms: Staphylococcus aureus; type: cell-based; details: 1 μM; 15 mW/cm2, 30 min
Method: as §1, §2

[3] = test system: E. Coli (strain 04); assay: Photoinactivation of microorganisms: E. coli; type: cell-based, Escherichia coli (strain 04); details: footnote below the P. aeruginosa / E. coli table
Method: as §1, §2

[Zn+2].c1ccc2c(c1)-c1nc-2nc2[n-]c(nc3nc([n-]c4nc(n1)-c1ccccc1-4)-c1ccccc1-3)c1ccccc21 [ZnPC, ZnPhthalocyanine]
Photoinactivation activity (in words) [1]: not active | Cell mortality [2]: 99.99 | Photoinactivation activity (in words) [3]: not active
